The text below walks through data of patent publication US20130345199A1, “1-[M-CARBOXAMIDO(HETERO)ARYL-METHYL]-PIPERIDINE-4-CARBOXAMIDE DERIVATIVES” (Actelion Pharmaceuticals Ltd., priority 2012, published 2013).

T1 sequence (P25106 whole entry): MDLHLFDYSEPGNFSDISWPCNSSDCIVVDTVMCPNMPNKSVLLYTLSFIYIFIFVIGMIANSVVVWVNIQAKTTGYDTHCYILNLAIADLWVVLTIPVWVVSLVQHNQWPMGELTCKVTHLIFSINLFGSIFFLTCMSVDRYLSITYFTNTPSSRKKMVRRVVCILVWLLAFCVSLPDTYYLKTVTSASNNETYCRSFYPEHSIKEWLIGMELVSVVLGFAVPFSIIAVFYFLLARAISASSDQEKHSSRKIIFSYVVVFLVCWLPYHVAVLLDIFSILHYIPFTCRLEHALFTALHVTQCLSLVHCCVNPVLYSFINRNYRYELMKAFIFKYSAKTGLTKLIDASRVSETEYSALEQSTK

The assay addresses T1, CXCR7 (Homo sapiens, UniProt P25106).
T1 construct: host or cells: CHO-K1 (PathHunter CXCR7 b-arrestin cell line, stably transfected)
Nature of the assay: PathHunter CHO-K1 CXCR7 b-arrestin assay (agonistic activity). To be noted: PathHunter CHO-K1 CXCR7 b-arrestin cell line, 90 minutes at 37° C. In kind it is cell-based.
Take `CC(C)(C)NC(=O)C1CCN(Cc2cc(NC(=O)c3cccc(C(F)(F)F)n3)ncn2)CC1` [Example 5.001, 6-Trifluoromethyl-pyridine-2-carboxylic acid [6-(4-tert-butylcarbamoyl-piperidin-1-ylmethyl)-pyrimidin-4-yl]-amide]: the concentration giving a half-maximal response (EC50) stood at 0.029 µM.
For “N-[3-(4-Cyclopropylcarbamoyl-piperidin-1-ylmethyl)-phenyl]-6-methyl-nicotinamide [Example 1.202]” the value was 0.145 µM; for “N-[3-(4-tert-Butylcarbamoyl-piperidin-1-ylmethyl)-phenyl]-5-methoxy-nicotinamide [Example 4.014]”, 0.008 µM; for “rac-2-Methyl-pyrimidine-4-carboxylic acid {3-[1-(4-cyclohexylcarbamoyl-piperidin-1-yl)-ethyl]-phenyl}-amide [Example 1.197]”, 0.015 µM.

What is called EC50 is the concentration needed to bring the measured effect to its halfway point. Low readings indicate greater potency, high ones weaker potency.
